14 molecules from ChEMBL document CHEMBL5143662, “Discovery of EP300/CBP histone acetyltransferase inhibitors through scaffold hopping of 1,4-oxazepane ring” (Bioorg Med Chem Lett, 2022) can be followed below.

pIC50: −log10 of the molar value. Converted amounts (≈) assume the structure as drawn. Some results are limits rather than exact numbers.

Data set [1] deals with T1, Histone acetyltransferase p300 (Homo sapiens, UniProt Q09472). Put plainly: Inhibition of N-terminal His tagged human EP300 (1159-1666 residues) expressed in Escherichia coli BL21 (DE3) using biotinylated H4 (1 to 25)-GSGSK peptide as substrate incubated for 1 hr by AlphaLISA assay. On the technique in general: Bead proximity is the source of the signal in Alpha formats.

Data set [2] has as its target T1, Histone acetyltransferase p300. The data set is described as follows: Inhibition of EP300 in human LK2 cells assessed as reduction in intracellular histone H3 acetylation at lysine 27 residue incubated for 3 hrs by chemiluminescence based ELISA. The class given is cell-based. On the technique in general: An ELISA detects its analyte on a solid surface through an enzyme-linked reagent.

Data set [3] in a line: Metabolic stability in mouse liver microsomes assessed as parent compound remaining measured after 0.5 hr. As to conditions: read-out: Stability. Type of data set: ADME, Microsome.
Data set [4] can be described thus: Inhibition of SOX2 mRNA expression in human LK2 cells incubated for 6 hrs by RT-qPCR analysis. The class given is functional, cell-based. Conditions: LK-2, 6 h. A general note: Real-time PCR tracks product formation cycle by cycle.
Data set [5] can be described thus: Solubility of the compound at pH 1.2. The class given is physicochemical. As to conditions: buffer.
Data set [6] in a line: Solubility of the compound at pH 6.8. Conditions: buffer. Type of data set: physicochemical.
A short description of data set [7]: Lipophilicity, logD of compound. The class given is physicochemical. As to conditions: octanol/water.
Data set [8] is described as follows: Permeability of compound at pH 7.4 by PAMPA assay. Type of data set: ADME. As to conditions: read-out: permeability.
A short description of data set [9]: Permeability of compound at pH 5.0 by PAMPA assay. As to conditions: read-out: permeability. Type of data set: ADME.
A short description of data set [10]: Protein binding in mouse plasma assessed as unbound fraction. The class given is ADME, cell-free.
The target of data set [11] is T2, CREB-binding protein (Homo sapiens, UniProt Q92793). Put plainly: Inhibition of CBP (unknown origin) using biotinylated H4 (1 to […])-GSGSK peptide as substrate incubated for 1 hr by AlphaLISA assay.
Target sequence in this assay (Q92793 whole entry): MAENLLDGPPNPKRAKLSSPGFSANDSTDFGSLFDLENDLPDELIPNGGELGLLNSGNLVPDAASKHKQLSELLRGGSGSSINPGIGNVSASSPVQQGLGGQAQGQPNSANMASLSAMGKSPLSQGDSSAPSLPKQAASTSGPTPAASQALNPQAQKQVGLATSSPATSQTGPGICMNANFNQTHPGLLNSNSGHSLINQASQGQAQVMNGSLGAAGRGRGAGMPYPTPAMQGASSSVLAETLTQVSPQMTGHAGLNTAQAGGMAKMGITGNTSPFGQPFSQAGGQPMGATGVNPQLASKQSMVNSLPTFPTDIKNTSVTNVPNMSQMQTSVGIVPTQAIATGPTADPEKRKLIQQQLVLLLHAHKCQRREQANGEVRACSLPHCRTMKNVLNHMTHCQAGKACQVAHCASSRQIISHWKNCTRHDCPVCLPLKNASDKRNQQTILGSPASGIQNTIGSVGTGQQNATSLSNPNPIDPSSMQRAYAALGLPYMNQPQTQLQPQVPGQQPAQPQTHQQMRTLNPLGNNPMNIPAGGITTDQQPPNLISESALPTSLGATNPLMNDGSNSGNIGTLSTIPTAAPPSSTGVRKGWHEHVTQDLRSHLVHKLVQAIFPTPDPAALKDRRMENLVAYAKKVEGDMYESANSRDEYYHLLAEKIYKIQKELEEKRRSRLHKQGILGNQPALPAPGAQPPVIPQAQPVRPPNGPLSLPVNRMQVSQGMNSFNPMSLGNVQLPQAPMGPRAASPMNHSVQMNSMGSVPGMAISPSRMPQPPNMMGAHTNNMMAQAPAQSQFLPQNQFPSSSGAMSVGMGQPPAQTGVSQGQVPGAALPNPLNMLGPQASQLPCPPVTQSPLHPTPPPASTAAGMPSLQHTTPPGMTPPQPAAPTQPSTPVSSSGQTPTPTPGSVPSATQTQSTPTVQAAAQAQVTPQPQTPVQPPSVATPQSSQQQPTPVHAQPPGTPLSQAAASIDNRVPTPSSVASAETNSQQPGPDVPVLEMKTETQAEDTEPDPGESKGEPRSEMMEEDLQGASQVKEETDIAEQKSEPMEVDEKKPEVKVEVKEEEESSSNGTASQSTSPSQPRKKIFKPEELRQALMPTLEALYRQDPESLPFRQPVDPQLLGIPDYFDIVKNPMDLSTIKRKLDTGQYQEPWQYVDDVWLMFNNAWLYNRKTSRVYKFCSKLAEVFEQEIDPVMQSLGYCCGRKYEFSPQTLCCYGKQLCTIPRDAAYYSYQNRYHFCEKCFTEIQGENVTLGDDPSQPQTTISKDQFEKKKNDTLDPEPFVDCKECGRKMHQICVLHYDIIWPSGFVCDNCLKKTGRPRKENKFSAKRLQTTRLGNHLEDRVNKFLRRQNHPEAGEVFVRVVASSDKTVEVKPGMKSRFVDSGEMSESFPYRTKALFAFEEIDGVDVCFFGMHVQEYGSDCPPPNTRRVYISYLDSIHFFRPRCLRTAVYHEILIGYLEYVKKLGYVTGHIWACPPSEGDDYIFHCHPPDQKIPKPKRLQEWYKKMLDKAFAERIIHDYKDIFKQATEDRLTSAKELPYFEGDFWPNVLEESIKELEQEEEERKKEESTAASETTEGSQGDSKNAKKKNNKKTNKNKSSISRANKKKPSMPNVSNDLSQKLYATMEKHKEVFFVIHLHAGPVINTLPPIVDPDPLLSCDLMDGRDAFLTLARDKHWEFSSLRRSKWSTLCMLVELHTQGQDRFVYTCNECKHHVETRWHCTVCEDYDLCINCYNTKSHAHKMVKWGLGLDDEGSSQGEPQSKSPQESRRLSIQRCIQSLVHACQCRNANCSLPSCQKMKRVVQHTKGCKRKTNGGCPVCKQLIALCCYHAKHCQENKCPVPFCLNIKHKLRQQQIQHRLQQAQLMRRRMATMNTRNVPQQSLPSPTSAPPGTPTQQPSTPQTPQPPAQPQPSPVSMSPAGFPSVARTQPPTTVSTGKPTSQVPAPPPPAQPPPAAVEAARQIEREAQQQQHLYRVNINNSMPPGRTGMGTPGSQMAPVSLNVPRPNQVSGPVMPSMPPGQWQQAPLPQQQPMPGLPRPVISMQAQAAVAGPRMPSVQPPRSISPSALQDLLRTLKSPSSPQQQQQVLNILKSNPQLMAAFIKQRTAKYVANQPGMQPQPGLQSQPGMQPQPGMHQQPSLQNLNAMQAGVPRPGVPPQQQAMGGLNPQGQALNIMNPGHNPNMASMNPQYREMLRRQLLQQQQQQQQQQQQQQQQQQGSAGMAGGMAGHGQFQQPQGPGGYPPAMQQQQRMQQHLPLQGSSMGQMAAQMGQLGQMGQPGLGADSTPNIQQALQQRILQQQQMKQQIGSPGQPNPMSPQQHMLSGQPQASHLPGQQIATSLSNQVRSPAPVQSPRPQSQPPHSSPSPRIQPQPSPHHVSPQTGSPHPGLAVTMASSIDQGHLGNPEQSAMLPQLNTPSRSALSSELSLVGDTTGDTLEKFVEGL
Data set [12] relates to LK-2. The data set is described as follows: Antitumor activity against human LK2 cells xenografted in BALB/c nude mouse assessed as suppression of SOX2 mRNA level in […] at 50 to 200 mg/kg, po and measured after 6 hrs by qRT-PCR analysis relative to GADPH. Type of data set: functional, organism-based. Conditions: dose 50-200 mg/kg, DDE = dose-dependent effect.
Data set [13] concerns LK-2. Put plainly: Antitumor activity against human LK2 cells xenografted in BALB/c nude mouse assessed as suppression of SOX2 mRNA level in tumor at 50 to 200 mg/kg, po and measured after 6 hrs by qRT-PCR analysis relative to GADPH. The class given is functional, organism-based. As to conditions: dose 50-200 mg/kg, DDE = dose-dependent effect.
Data set [14] deals with Histone acetyltransferase KAT5 (Homo sapiens, UniProt Q92993). Put plainly: Inhibition of GST tagged human TIP60 expressed in Sf9 cells using biotinylated H4 (1 to 25)-GSGSK peptide as substrate incubated for 1 hr by AlphaLISA assay.
The target in data set [15] is Histone acetyltransferase KAT7 (Homo sapiens, UniProt O95251). Put plainly: Inhibition of MYST2 (unknown origin) using biotinylated H4 (1 to […])-GSGSK peptide as substrate incubated for 1 hr by AlphaLISA assay.
The target in data set [16] is Histone acetyltransferase KAT6B (Homo sapiens, UniProt Q8WYB5). The data set is described as follows: Inhibition of MYST4 (unknown origin) using biotinylated H4 (1 to […])-GSGSK peptide as substrate incubated for 1 hr by AlphaLISA assay.
Data set [17] has as its target Histone acetyltransferase KAT2B (Homo sapiens, UniProt Q92831). The data set is described as follows: Inhibition of GST tagged human PCAF (431 to end residues) expressed in Sf9 cells using biotinylated H3 (1 to 21)-GGK peptide as substrate incubated for 1 hr by AlphaLISA assay.
Data set [18] deals with Histone acetyltransferase KAT2A (Homo sapiens, UniProt Q92830). Put plainly: Inhibition of GST tagged human GCN5 (323 to end residues) expressed in Sf9 cells using biotinylated H3 (1 to 21)-GGK peptide as substrate incubated for 1 hr by AlphaLISA assay.
In data set [19] the target is T2, CREB-binding protein. Put plainly: Inhibition of CBP (unknown origin) at 50 uM using biotinylated H4 (1 to 25)-GSGSK peptide as substrate incubated for 1 hr by AlphaLISA assay relative to control.

T1 sequence (Q09472 whole entry, the tested form may be a part): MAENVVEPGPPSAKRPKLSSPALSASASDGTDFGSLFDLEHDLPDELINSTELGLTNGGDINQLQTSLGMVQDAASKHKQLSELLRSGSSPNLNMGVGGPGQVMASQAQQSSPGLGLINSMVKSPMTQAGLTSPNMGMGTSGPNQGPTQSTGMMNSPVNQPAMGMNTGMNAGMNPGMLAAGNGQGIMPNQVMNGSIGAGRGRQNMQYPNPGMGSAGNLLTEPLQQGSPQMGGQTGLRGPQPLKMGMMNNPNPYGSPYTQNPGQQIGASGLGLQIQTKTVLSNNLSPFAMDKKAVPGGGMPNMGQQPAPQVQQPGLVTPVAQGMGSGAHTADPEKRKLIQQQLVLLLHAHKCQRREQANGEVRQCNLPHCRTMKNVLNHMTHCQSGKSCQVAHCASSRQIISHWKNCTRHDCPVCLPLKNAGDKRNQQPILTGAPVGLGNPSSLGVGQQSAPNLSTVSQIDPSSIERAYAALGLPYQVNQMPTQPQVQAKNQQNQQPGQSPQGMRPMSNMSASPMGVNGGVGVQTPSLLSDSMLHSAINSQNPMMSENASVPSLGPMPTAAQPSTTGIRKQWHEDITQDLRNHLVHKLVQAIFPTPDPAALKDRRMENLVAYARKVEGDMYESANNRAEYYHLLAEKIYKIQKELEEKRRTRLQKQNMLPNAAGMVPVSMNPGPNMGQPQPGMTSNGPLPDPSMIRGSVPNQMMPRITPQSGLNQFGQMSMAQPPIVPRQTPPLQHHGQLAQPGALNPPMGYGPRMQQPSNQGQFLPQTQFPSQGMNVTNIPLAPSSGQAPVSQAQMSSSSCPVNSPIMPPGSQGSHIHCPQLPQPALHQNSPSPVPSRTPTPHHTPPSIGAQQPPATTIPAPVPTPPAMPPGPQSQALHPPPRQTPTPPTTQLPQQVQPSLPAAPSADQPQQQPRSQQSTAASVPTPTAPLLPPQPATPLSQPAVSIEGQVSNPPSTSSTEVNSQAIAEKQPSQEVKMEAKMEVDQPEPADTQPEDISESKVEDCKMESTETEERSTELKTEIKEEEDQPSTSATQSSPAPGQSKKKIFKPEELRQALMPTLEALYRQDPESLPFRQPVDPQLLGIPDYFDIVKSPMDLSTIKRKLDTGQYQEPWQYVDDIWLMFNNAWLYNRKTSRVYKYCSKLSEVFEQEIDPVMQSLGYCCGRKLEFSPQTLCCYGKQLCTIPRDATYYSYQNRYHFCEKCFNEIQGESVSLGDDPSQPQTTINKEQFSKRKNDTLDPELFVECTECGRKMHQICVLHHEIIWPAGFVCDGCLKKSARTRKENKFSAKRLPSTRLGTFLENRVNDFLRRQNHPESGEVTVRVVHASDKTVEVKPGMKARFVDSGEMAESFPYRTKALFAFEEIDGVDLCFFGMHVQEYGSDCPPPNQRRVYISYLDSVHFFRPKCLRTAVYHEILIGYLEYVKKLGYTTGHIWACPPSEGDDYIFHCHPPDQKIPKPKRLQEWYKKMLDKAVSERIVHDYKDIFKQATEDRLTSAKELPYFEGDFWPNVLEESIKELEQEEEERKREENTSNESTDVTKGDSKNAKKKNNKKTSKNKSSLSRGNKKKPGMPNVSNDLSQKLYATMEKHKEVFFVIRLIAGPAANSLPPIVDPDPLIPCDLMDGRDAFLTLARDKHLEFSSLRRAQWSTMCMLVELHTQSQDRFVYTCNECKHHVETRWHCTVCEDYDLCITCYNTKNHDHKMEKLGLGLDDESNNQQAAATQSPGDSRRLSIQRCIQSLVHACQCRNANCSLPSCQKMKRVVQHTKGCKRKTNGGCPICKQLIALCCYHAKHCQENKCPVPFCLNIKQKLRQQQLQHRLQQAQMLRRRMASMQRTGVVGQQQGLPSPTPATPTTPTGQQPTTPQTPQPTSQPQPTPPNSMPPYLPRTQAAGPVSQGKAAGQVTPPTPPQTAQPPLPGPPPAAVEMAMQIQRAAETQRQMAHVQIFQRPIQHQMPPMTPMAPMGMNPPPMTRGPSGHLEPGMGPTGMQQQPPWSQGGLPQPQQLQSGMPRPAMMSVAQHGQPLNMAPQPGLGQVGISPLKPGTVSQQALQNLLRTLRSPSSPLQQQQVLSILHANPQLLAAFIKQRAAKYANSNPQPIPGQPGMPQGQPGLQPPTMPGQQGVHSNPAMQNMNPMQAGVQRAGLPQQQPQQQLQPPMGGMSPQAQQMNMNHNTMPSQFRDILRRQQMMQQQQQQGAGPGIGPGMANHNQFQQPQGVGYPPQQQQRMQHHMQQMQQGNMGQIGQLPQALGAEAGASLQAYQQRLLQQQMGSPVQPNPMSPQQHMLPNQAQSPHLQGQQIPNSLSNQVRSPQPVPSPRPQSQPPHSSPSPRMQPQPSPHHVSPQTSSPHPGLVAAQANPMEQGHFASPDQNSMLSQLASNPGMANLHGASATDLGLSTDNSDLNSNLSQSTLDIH

In general, pIC50 refers to −log10 of the IC50, conventionally taken in molar units. `COc1ccc(C2(C(=O)N3CCC[C@@H]3C(=O)Nc3cccc4[nH]ncc34)CCCCC2)cc1`: the pIC50 in data set [1] is 6.77; in data set [2], 6.38.
For the molecule `COc1ccc(C2(C(=O)N3CCOCC(Cc4cccc5[nH]ncc45)C3)CCCC2)cc1` (stereo in doubt; 3), the pIC50 in [1] is 6.89; in data set [2], 6.42.
For the molecule `COc1ccc(C2(C(=O)N3CCC[C@@H]3C(=O)Nc3cccc4[nH]ncc34)CCCC2)cc1`, in data set [1], the negative-log IC50 (pIC50) was 6.74. Further, in [3], the remaining at 0.5 h was 10%.
Regarding `COc1ccc(C2(C(=O)N3CCOCC(Cc4cccc5[nH]ncc45)C3)CCCCC2)cc1` (stereo not given), the pIC50 is 6.85 in data set [1] and 6.21 in data set [2].
Regarding `COc1ccc(C2(C(=O)N3CCOCC(Cc4cccc5[nH]ncc45)C3)CCCC2)cc1` (single isomer, unassigned; (+)), the pIC50 in data set [1] is 7.30; in [2], 6.89.
The like results for `COc1ccc(C2(C(=O)N3CCOCC(Cc4cccc5[nH]ncc45)C3)CCOCC2)cc1` (stereo not given) were, in that order, 6.21 and 5.65.
Regarding `COc1ccc(C2(C(=O)N3C[C@H](F)C[C@@H]3C(=O)Nc3cccc4[nH]ncc34)CCCC2)cc1`, the pIC50 in data set [1] was 7.25; in [2], 6.34. In addition, the remaining at 0.5 h in [3] worked out at 5%.
As for `COc1ccc(C2(C(=O)N3CCOCC(Cc4cccc5[nH]ncc45)C3)CCCC2)cc1` (single isomer, unassigned; (-)), the negative-log IC50 (pIC50) in data set [2] is < 4.60.
Consider `COc1ccc(C2(C(=O)N(C)CC(=O)Nc3cccc4[nH]ncc34)CCCCC2)cc1`, for which the pIC50 in data set [1] was 6.72; in [2], 6.00.
With `COc1ccc(C2(C(=O)N3C[C@H](O)C[C@@H]3C(=O)Nc3cccc4[nH]ncc34)CCCC2)cc1`, in data set [2], the pIC50 is 5.99. In addition, the remaining at 0.5 h in data set [3] was determined as 47%.
As for `COc1ccc(C2(C(=O)N3C[C@@H](O)C[C@@H]3C(=O)Nc3cccc4[nH]ncc34)CCCC2)cc1`, the pIC50 in [1] was 6.04; in data set [2] it was 5.84. Besides, in data set [3], the remaining at 0.5 h turned out to be 57%.
In general, solubility refers to the concentration that dissolves in the medium under given conditions. High values mean a readily soluble substance, low ones a poorly soluble substance. For orientation: logD means lipophilicity at a set pH, counting ionised and neutral species. Lower therefore signals a more hydrophilic compound. As usually defined, the fraction unbound is the share of the substance not bound to proteins or other matrix. For the molecule `COc1ccc(C2(C(=O)N3CS(=O)(=O)C[C@@H]3C(=O)Nc3cccc4[nH]ncc34)CCCC2)cc1`, the pIC50 is 6.82 in data set [1], 6.35 in data set [2], 6.15 in data set [4] and 7.40 on CREB-binding protein [11]. In addition, in data set [3], the remaining at 0.5 h amounted to 37%. Also, the values for the solubility in [5] and in data set [6] were 63 µg/mL (≈ 131 µM) and 50 µg/mL (≈ 104 µM), respectively. In addition, in data set [7], the logD is 3.2. Further, the Papp in [8] and in data set [9] was > 50 ×10⁻⁶ cm/s in each case. The fraction unbound in data set [10] is 0.952. The Activity result in the data set on LK-2 [12] and in the data set on LK-2 [13] was “Dde” in each case.
In the case of `COc1ccc(C2(C(=O)N(C)[C@H](C)C(=O)Nc3cccc4[nH]ncc34)CCCC2)cc1`, the pIC50 in data set [1] was 6.66; in data set [2], 5.30.
As a reminder, the inhibition is the percentage by which the read-out fell short of the control. In the case of `CC1=NN(c2ccc(C(=O)O)cc2)C(=O)/C1=C\c1ccc(-c2cc(C)c(C)cc2[N+](=O)[O-])o1`, the pIC50 at CREB-binding protein [11] is < 4.30; in data set [14], 4.43; in [15] it was 5.11; in [16], 4.68; in [17] it was 4.41; in [18] it was 4.32. Moreover, the inhibition at CREB-binding protein [19] came out at 29%.
